Measurements reported in ChEMBL document CHEMBL3608294, “Epoxylathyrol Derivatives: Modulation of ABCB1-Mediated Multidrug Resistance in Human Colon Adenocarcinoma and Mouse T-Lymphoma Cells” (J Nat Prod, 2015).

Columns and labels:
L5178Y [1] = experiment: Selectivity index, ratio of cytotoxic IC50 for wild type parental mouse L5178Y cells to cytotoxic IC50 for human ABCB1 expressing mouse L5178Y cells; format: functional
[2] = molecular target: T1, ATP-dependent translocase ABCB1 (Homo sapiens, UniProt P08183); experiment: Inhibition of ABCB1 in multidrug resistant human COLO320 cells assessed as fluorescence activity ratio at 2 uM incubated for 10 mins by flow cytometry based rhodamine-123 accumulation assay (reference value: 0.62)
[3] = Antiproliferative activity against multidrug resistant human COLO320 cells incubated for 72 hrs by MTT assay; format: functional; conditions: COLO 320, 72 h
[4] = Cytotoxicity against multidrug resistant human COLO320 cells incubated for 24 hrs by MTT assay; format: functional, cell-based; conditions: COLO 320, 24 h
[5] = molecular target: T1, ATP-dependent translocase ABCB1; experiment: Inhibition of human ABCB1 expressed in mouse L5178Y cells assessed as fluorescence activity ratio at 0.2 uM incubated for 10 mins by flow cytometry based rhodamine-123 accumulation assay (reference value: 0.78); format: cell-based
L5178Y [6] = experiment: Selectivity index, ratio of antiproliferative IC50 for wild type parental mouse L5178Y cells to antiproliferative IC50 for human ABCB1 expressing mouse L5178Y cells; format: functional
L5178Y [7] = experiment: Antiproliferative activity against chemosensitive wild type parental mouse L5178Y cells incubated for 72 hrs by MTT assay; format: functional, cell-based
[8] = Selectivity index, ratio of antiproliferative IC50 for chemosensitive human COLO205 cells to antiproliferative IC50 for multidrug resistant human COLO320 cells; format: functional, COLO 205
[9] = molecular target: T1, ATP-dependent translocase ABCB1; experiment: Inhibition of human ABCB1 expressed in mouse L5178Y cells assessed as potentiation of 2 mg/ml doxorubicin-induced cytotoxicty at 9:1 compound to doxorubicin ratio incubated for 48 hrs by MTT assay; format: cell-based
[10] = Antiproliferative activity against chemosensitive human COLO205 cells incubated for 72 hrs by MTT assay; format: functional, cell-based; conditions: COLO 205, 72 h
[11] = molecular target: T1, ATP-dependent translocase ABCB1; experiment: Inhibition of human ABCB1 expressed in mouse L5178Y cells assessed as fluorescence activity ratio at 2 uM incubated for 10 mins by flow cytometry based rhodamine-123 accumulation assay (reference value: 0.78); format: cell-based
[12] = molecular target: T1, ATP-dependent translocase ABCB1; experiment: Inhibition of human ABCB1 expressed in mouse L5178Y cells assessed as fluorescence activity ratio at 20 uM incubated for 10 mins by flow cytometry based rhodamine-123 accumulation assay (reference value: 0.78); format: cell-based
[13] = molecular target: T1, ATP-dependent translocase ABCB1; experiment: Inhibition of ABCB1 in multidrug resistant human COLO320 cells assessed as fluorescence activity ratio at 0.2 uM incubated for 10 mins by flow cytometry based rhodamine-123 accumulation assay (reference value: 0.62)
L5178Y [14] = experiment: Cytotoxicity against human ABCB1 expressing mouse L5178Y cells incubated for 24 hrs by MTT assay; format: functional, cell-based
[15] = Selectivity index, ratio of cytotoxic IC50 for chemosensitive human COLO205 cells to cytotoxic IC50 for multidrug resistant human COLO320 cells; format: functional, COLO 205
[16] = molecular target: T1, ATP-dependent translocase ABCB1; experiment: Inhibition of ABCB1 in multidrug resistant human COLO320 cells assessed as fluorescence activity ratio at 20 uM incubated for 10 mins by flow cytometry based rhodamine-123 accumulation assay (reference value: 0.62)
COLO 205 = experiment: Cytotoxicity against chemosensitive human COLO205 cells incubated for 24 hrs by MTT assay; format: functional, cell-based; conditions: COLO 205, 24 h
L5178Y [17] = experiment: Antiproliferative activity against human ABCB1 expressing mouse L5178Y cells incubated for 72 hrs by MTT assay; format: functional, cell-based
L5178Y [18] = experiment: Cytotoxicity against chemosensitive wild type parental mouse L5178Y cells incubated for 24 hrs by MTT assay; format: functional, cell-based
[19] = molecular target: T1, ATP-dependent translocase ABCB1; experiment: Inhibition of human ABCB1 expressed in mouse L5178Y cells assessed as potentiation of 2 mg/ml doxorubicin-induced cytotoxicty at 7:1 compound to doxorubicin ratio incubated for 48 hrs by MTT assay; format: cell-based
[20] = molecular target: T1, ATP-dependent translocase ABCB1; experiment: Non-competitive inhibition of human ABCB1 expressed in Sf9 cell membrane vesicles assessed as reduction in vanadate-sensitive ATPase activity at >25 uM using MgATP by colorimetric ATPase assay
[21] = molecular target: T1, ATP-dependent translocase ABCB1; experiment: Inhibition of human ABCB1 expressed in mouse L5178Y cells assessed as potentiation of 2 mg/ml doxorubicin-induced cytotoxicty by measuring combination index at 5:1 compound to doxorubicin ratio incubated for 48 hrs by MTT assay; format: cell-based
[22] = molecular target: T1, ATP-dependent translocase ABCB1; experiment: Activation of human ABCB1 expressed in Sf9 cell membrane vesicles assessed as inorganic phosphate release at 0.8 uM to 100 uM using MgATP by colorimetric ATPase assay
[23] = molecular target: T1, ATP-dependent translocase ABCB1; experiment: Non-competitive inhibition of human ABCB1 expressed in Sf9 cell membrane vesicles assessed as reduction in verapamil transport at >25 uM using MgATP by colorimetric ATPase assay
[24] = molecular target: T1, ATP-dependent translocase ABCB1; experiment: Inhibition of human ABCB1 expressed in Sf9 cell membrane vesicles assessed as reduction in verapamil transport at 0.8 uM to 100 uM using MgATP by colorimetric ATPase assay
[25] = molecular target: T1, ATP-dependent translocase ABCB1; experiment: Inhibition of human ABCB1 expressed in Sf9 cell membrane vesicles assessed as reduction in verapamil transport at 0.8 uM to 100 uM using MgATP by colorimetric ATPase assay relative to control

T1 sequence (P08183 whole entry): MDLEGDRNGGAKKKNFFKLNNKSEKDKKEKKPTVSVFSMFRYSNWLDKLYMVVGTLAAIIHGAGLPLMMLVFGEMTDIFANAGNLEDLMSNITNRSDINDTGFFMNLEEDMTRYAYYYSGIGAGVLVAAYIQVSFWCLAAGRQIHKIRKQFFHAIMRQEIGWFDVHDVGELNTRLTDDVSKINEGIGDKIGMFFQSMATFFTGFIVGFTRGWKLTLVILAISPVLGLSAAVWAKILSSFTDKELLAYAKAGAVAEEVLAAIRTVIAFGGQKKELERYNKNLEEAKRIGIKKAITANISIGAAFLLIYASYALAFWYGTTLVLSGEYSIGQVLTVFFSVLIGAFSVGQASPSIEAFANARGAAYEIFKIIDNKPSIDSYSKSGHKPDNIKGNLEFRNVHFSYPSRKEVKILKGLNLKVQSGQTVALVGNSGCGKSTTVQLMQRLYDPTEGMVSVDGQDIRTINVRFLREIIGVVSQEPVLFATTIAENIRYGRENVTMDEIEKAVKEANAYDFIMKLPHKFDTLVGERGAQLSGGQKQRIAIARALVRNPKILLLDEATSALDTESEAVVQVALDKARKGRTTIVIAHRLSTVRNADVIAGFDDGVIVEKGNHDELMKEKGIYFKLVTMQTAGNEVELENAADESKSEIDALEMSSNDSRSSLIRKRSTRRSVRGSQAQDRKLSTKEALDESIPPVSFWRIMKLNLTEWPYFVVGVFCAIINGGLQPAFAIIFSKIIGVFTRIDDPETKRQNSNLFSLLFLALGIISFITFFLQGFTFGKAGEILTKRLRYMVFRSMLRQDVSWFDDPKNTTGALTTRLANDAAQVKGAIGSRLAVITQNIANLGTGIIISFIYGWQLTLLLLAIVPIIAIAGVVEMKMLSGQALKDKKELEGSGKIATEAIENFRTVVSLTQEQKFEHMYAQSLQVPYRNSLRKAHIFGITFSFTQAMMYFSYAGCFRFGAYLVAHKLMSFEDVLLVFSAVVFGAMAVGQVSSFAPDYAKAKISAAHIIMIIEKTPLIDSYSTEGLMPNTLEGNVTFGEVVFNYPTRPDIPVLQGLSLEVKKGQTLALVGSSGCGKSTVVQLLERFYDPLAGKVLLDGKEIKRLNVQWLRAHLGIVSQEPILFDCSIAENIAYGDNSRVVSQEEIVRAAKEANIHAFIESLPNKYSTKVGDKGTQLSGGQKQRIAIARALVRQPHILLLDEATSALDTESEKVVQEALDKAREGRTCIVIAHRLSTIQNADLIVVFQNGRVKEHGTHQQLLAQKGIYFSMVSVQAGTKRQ

SMILES: COc1ccccc1C(=O)OC[C@]1(C)CC[C@H]2[C@@H](/C=C(\C)C(=O)[C@@]3(O)C[C@H](C)[C@H](OC(=O)c4ccccc4OC)[C@@H]3[C@H]1O)C2(C)C
- Ratio IC50 (L5178Y [1]): 0.77
- Ratio [2]: 4.44
- IC50 [3]: 17.8 µM
- IC50 [4]: 25.1 µM
- Ratio [5]: 2.47
- Ratio IC50 (L5178Y [6]): 0.78
- IC50 (L5178Y [7]): 24.4 µM
- Ratio IC50 [8]: 0.87
- CI [9]: 0.051
- IC50 [10]: 15.5 µM
- Ratio [11]: 33.36
- Ratio [12]: 55.43
- Ratio [13]: 1.25
- IC50 (L5178Y [14]): 38.9 µM
- Ratio IC50 [15]: 0.99
- Ratio [16]: 12.35
- IC50 (COLO 205): 24.6 µM
- IC50 (L5178Y [17]): 31.3 µM
- IC50 (L5178Y [18]): 29.9 µM

SMILES: C/C1=C\[C@@H]2[C@H](CC[C@]3(CO3)[C@H](OC(=O)N(C)C)[C@H]3[C@@H](O)[C@@H](C)C[C@]3(O)C1=O)C2(C)C
- Ratio IC50 (L5178Y [1]): >100
- Ratio [2]: 1.03
- IC50 [3]: 69 µM
- IC50 [4]: > 100 µM
- IC50 (L5178Y [7]): > 100 µM
- Ratio IC50 [8]: 1
- IC50 [10]: 69 µM
- Ratio [11]: 0.67
- Ratio [12]: 1.61
- IC50 (L5178Y [14]): > 100 µM
- Ratio IC50 [15]: <0.41
- Ratio [16]: 1.55
- IC50 (COLO 205): 41 µM
- IC50 (L5178Y [17]): > 100 µM
- IC50 (L5178Y [18]): > 100 µM
- CI [19]: 0.861

SMILES: C/C1=C\[C@@H]2[C@H](CC[C@]3(CO3)[C@H](OC(=O)c3cccs3)[C@H]3[C@@H](OC(=O)c4cccs4)[C@@H](C)C[C@]3(O)C1=O)C2(C)C
- Ratio IC50 (L5178Y [1]): 1.16
- inhibition (INH) [20]: Active
- CI [21]: 0.196
- Ratio [2]: 8.44
- IC50 [3]: > 100 µM
- IC50 [4]: 25.1 µM
- Ratio IC50 (L5178Y [6]): 0.81
- IC50 (L5178Y [7]): 26.2 µM
- Ratio IC50 [8]: <0.19
- Activity [22]: Active
- IC50 [10]: 18.8 µM
- inhibition (INH) [23]: Active
- Ratio [11]: 31.06
- Ratio [12]: 68.74
- IC50 (L5178Y [14]): 28.3 µM
- Ratio IC50 [15]: >3.99
- Ratio [16]: 12.16
- IC50 (COLO 205): > 100 µM
- IC50 (L5178Y [17]): 32.4 µM
- IC50 (L5178Y [18]): 32.8 µM

SMILES: CO[C@H]1[C@@H]2[C@H](CC[C@]3(COC(=O)c4ccccc4)O[C@@H]3[C@H]3[C@@H](OC(=O)c4ccccc4)[C@@H](C)C[C@]3(O)C(=O)[C@@H]1C)C2(C)C
- Ratio IC50 (L5178Y [1]): 0.8
- inhibition (INH) [24]: Active
- CI [21]: 0.057
- Ratio [2]: 9.85
- IC50 [3]: 6.9 µM
- inhibition (INH) [25]: 50%
- Ratio [5]: 11.85
- Ratio IC50 (L5178Y [6]): 0.99
- IC50 (L5178Y [7]): 27 µM
- Ratio IC50 [8]: 0.76
- Activity [22]: Active
- IC50 [10]: 5.2 µM
- Ratio [11]: 67.06
- Ratio [12]: 71.78
- Ratio [13]: 6.34
- IC50 (L5178Y [14]): 32.6 µM
- Ratio [16]: 13.97
- IC50 (L5178Y [17]): 27.4 µM
- IC50 (L5178Y [18]): 26.1 µM
